Experimental data: paper PMC11960969, “Mdga2 deficiency leads to an aberrant activation of BDNF/TrkB signaling that underlies autism-relevant synaptic and behavioral changes in mice” (PLOS Biology, 2025)

What was measured:
[1] = test system: ASD animal models; settings: VRK3-deficient mice and D2-deficient mice with early-life stress; cited from earlier work
[2] = test system: TrkB; assay: Biotin pull-down of TrkB after intrahippocampal injection of biotin-peptides; type: in vivo; settings: 1 μg biotin-conjugated peptide bilaterally into mouse hippocampus, 24 h

Row | Compound | social deficits and repetitive self-grooming behavior [1] | binding to TrkB in vivo (biotin pull-down) [2]
1 | O=c1cc(-c2ccccc2)oc2c(O)c(O)ccc12 [7.8-dihydroxyflavone, reference compound] | rescued both social deficits and repetitive self-grooming behavior | –
2 | NADRSGSKEGFYMYIETSRPRLEGE [MDGA2-P1, peptide of MDGA2 MAM domain, aa 787–811, biotin-labeled] | – | not P1, bound to TrkB in vivo
